Patent US10004738B2, “Combination treatment comprising administration of 2-amino-3,5,5-trifluoro-3,4,5,6-tetrahydropyridines” (H. Lundbeck A/S, priority 2015, dated 2018)
Where a name gives a salt, the structure may show the parent alone.

molecular target: BACE1 enzyme (Homo sapiens (Human), UniProt P56817); assay: BACE1 efficacy assay (FRET-based, commercial BACE1 kit); type: biochemical; details: test compound 10 μM, 3 nM enzyme, 250 nM substrate
Experimental: The efficacy assay was performed as a FRET-based assay using a commercially available BACE1 kit (Life Technologies, P2985). 2 μl test compound at 10 μM (final concentration) and 15 μl BACE1 enzyme from the kit (final concentration 3 nM) were preincubated for 15 minutes at room temperature before addition of 15 μl of substrate from the kit (250 nM final concentration) and incubated for additional 90 minutes at room temperature. The assay plate was subsequently read in a Pherastar (Ex540/Em590). […] The efficacy of the test compounds was evaluated at 10 μM (final concentration) and defined as the percent inhibition of the enzyme activity using the equation % inhibition=100%−normalized enzyme activity in percent.

Chain of BACE1 enzyme (P56817 46-501): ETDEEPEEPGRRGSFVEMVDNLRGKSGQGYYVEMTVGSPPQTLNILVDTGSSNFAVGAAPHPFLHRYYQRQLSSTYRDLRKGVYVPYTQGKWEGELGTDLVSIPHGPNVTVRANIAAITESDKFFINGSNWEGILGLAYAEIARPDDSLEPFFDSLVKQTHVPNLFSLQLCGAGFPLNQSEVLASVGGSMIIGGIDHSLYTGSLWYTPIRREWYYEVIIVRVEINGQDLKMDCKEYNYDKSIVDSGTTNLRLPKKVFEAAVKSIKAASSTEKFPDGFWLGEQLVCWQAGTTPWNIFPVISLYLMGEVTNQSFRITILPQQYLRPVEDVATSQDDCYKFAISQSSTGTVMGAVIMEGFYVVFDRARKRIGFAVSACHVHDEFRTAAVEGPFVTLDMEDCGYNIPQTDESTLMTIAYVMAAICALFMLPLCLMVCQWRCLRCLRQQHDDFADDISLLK

Row | SMILES | inhibition at 10 µM [%]
1 | COc1cnc(C(=O)Nc2ccc(F)c([C@@]3(C)N=C(N)[C@@](C)(F)CC3(F)F)c2)nc1 [Compound 12, N-(3-((2R,5S)-6-amino-3,3,5-trifluoro-2,5-dimethyl-2,3,4,5-tetrahydropyridin-2-yl)-4-fluorophenyl)-5-methoxpyrimidine-2-carboxamide] | 104
2 | C[C@]1(F)CC(F)(F)[C@@](C)(c2cc(NC(=O)c3coc(C(F)F)n3)ccc2F)N=C1N [Compound 13, N-(3-((2R,5S)-6-amino-3,3,5-trifluoro-2,5-dimethyl-2,3,4,5-tetrahydropyridin-2-yl)-4-fluorophenyl)-2-(difluoromethyl)oxazole-4-carboxamide] | 99
3 | C[C@]1(F)CC(F)(F)[C@@](C)(c2cc(NC(=O)c3ccc(C#N)cn3)ccc2F)N=C1N [Compound 4, N-(3-((2R,5S)-6-amino-3,3,5-trifluoro-2,5-dimethyl-2,3,4,5-tetrahydropyridin-2-yl)-4-fluorophenyl)-5-cyanopicolinamide] | 99
4 | C[C@]1(F)CC(F)(F)[C@@](C)(c2cc(NC(=O)c3cnc(C(F)F)cn3)ccc2F)N=C1N [Compound 16, N-(3-((2R,5S)-6-amino-3,3,5-trifluoro-2,5-dimethyl-2,3,4,5-tetrahydropyridin-2-yl)-4-fluorophenyl)-5-(difluoromethyl)pyrazine-2-carboxamide] | 105
5 | Cn1cnc(C(=O)Nc2ccc(F)c([C@@]3(C)N=C(N)[C@@](C)(F)CC3(F)F)c2)n1 [Compound 22, N-(3-((2R,5S)-6-amino-3,3,5-trifluoro-2,5-dimethyl-2,3,4,5-tetrahydropyridin-2-yl)-4-fluorophenyl)-1-methyl-1H-1,2,4-triazole-3-carboxamide] | 92
6 | C[C@]1(F)CC(F)(F)[C@@](C)(c2cc(NC(=O)c3ccc(Cl)cn3)ccc2F)N=C1N [Compound 3, N-(3-((2R,5S)-6-amino-3,3,5-trifluoro-2,5-dimethyl-2,3,4,5-tetrahydropyridin-2-yl)-4-fluorophenyl)-5-chloropicolinamide] | 102
7 | C[C@]1(F)CC(F)(F)[C@@](C)(c2cc(NC(=O)c3ccc(C(F)(F)F)cn3)ccc2F)N=C1N [Compound 11, N-(3-((2R,5S)-6-amino-3,3,5-trifluoro-2,5-dimethyl-2,3,4,5-tetrahydropyridin-2-yl)-4-fluorophenyl)-5-(trifluoromethyl)picolinamide] | 99
8 | C[C@]1(F)CC(F)(F)[C@@](C)(c2cc(NC(=O)c3nc(CF)co3)ccc2F)N=C1N [Compound 14, N-(3-((2R,5S)-6-amino-3,3,5-trifluoro-2,5-dimethyl-2,3,4,5-tetrahydropyridin-2-yl)-4-fluorophenyl)-4-(fluoromethyl)oxazole-2-carboxamide] | 102
9 | Cc1nc(C(=O)Nc2ccc(F)c([C@@]3(C)N=C(N)[C@@](C)(F)CC3(F)F)c2)co1 [Compound 7, N-(3-((2R,5S)-6-amino-3,3,5-trifluoro-2,5-dimethyl-2,3,4,5-tetrahydropyridin-2-yl)-4-fluorophenyl)-2-methyloxazole-4-carboxamide] | 100
10 | C[C@]1(F)CC(F)(F)[C@@](C)(c2cc(NC(=O)c3ccn(C(F)F)n3)ccc2F)N=C1N [Compound 6, N-(3-((2R,5S)-6-amino-3,3,5-trifluoro-2,5-dimethyl-2,3,4,5-tetrahydropyridin-2-yl)-4-fluorophenyl)-1-(difluoromethyl)-1H-pyrazole-3-carboxamide] | 100
11 | Cc1noc(C(=O)Nc2ccc(F)c([C@@]3(C)N=C(N)[C@@](C)(F)CC3(F)F)c2)n1 [Compound 21, N-(3-((2R,5S)-6-amino-3,3,5-trifluoro-2,5-dimethyl-2,3,4,5-tetrahydropyridin-2-yl)-4-fluorophenyl)-3-methyl-1,2,4-oxadiazole-5-carboxamide] | 102
12 | COc1cnc(C(=O)Nc2ccc(F)c([C@@]3(C)N=C(N)[C@@](C)(F)CC3(F)F)c2)c(C)n1 [Compound 19, N-(3-((2R,5S)-6-amino-3,3,5-trifluoro-2,5-dimethyl-2,3,4,5-tetrahydropyridin-2-yl)-4-fluorophenyl)-5-methoxy-3-methylpyrazine-2-carboxamide] | 98

The remaining lines, values ahead:

Row | inhibition at 10 µM [%] | SMILES
13 | 98 | Cc1cc(F)cnc1C(=O)Nc1ccc(F)c([C@@]2(C)N=C(N)[C@@](C)(F)CC2(F)F)c1 [Compound 49, N-(3-((2R,5S)-6-amino-3,3,5-trifluoro-2,5-dimethyl-2,3,4,5-tetrahydropyridin-2-yl)-4-fluorophenyl)-5-fluoro-3-methylpicolinamide]
14 | 101 | COc1cnc(C(=O)Nc2ccc(F)c([C@@]3(C)N=C(N)[C@@](C)(F)CC3(F)F)c2)c(F)c1 [Compound 46, N-(3-((2R,5S)-6-amino-3,3,5-trifluoro-2,5-dimethyl-2,3,4,5-tetrahydropyridin-2-yl)-4-fluorophenyl)-3-fluoro-5-methoxypicolinamide]
15 | 103 | C[C@@]1(F)CC(F)(F)[C@@](C)(c2cc(NC(=O)c3nc(CF)co3)ccc2F)N=C1N [Compound 30, N-(3-((2R,5R)-6-amino-3,3,5-trifluoro-2,5-dimethyl-2,3,4,5-tetrahydropyridin-2-yl)-4-fluorophenyl)-4-(fluoromethyl)oxazole-2-carboxamide]
16 | 102 | COc1cnc(C(=O)Nc2ccc(F)c([C@@]3(C)N=C(N)[C@](C)(F)CC3(F)F)c2)cn1 [Compound 25, N-(3-((2R,5R)-6-amino-3,3,5-trifluoro-2,5-dimethyl-2,3,4,5-tetrahydropyridin-2-yl)-4-fluorophenyl)-5-methoxypyrazine-2-carboxamide]
17 | 102 | Cc1nc(C(=O)Nc2ccc(F)c([C@@]3(C)N=C(N)[C@](C)(F)CC3(F)F)c2)co1 [Compound 34, N-(3-((2R,5R)-6-amino-3,3,5-trifluoro-2,5-dimethyl-2,3,4,5-tetrahydropyridin-2-yl)-4-fluorophenyl)-2-methyloxazole-4-carboxamide]
18 | 100 | Cc1nc(C(=O)Nc2ccc(F)c([C@@]3(C)N=C(N)[C@](C)(F)CC3(F)F)c2)no1 [Compound 35, N-(3-((2R,5R)-6-amino-3,3,5-trifluoro-2,5-dimethyl-2,3,4,5-tetrahydropyridin-2-yl)-4-fluorophenyl)-5-methyl-1,2,4-oxadiazole-3-carboxamide]
19 | 102 | C[C@@]1(F)CC(F)(F)[C@@](C)(c2cc(NC(=O)c3ccn(C(F)F)n3)ccc2F)N=C1N [Compound 23, N-(3-((2R,5R)-6-amino-3,3,5-trifluoro-2,5-dimethyl-2,3,4,5-tetrahydropyridin-2-yl)-4-fluorophenyl)-1-(difluoromethyl)-1H-pyrazole-3-carboxamide]
20 | 101 | C[C@@]1(F)CC(F)(F)[C@@](C)(c2cc(NC(=O)c3ccc(C#N)cn3)ccc2F)N=C1N [Compound 32, N-(3-((2R,5R)-6-amino-3,3,5-trifluoro-2,5-dimethyl-2,3,4,5-tetrahydropyridin-2-yl)-4-fluorophenyl)-5-cyanopicolinamide]
21 | 69 | Cc1cc(C(=O)Nc2ccc(F)c([C@@]3(C)N=C(N)[C@](C)(F)CC3(F)F)c2)on1 [Compound 40, N-(3-((2R,5R)-6-amino-3,3,5-trifluoro-2,5-dimethyl-2,3,4,5-tetrahydropyridin-2-yl)-4-fluorophenyl)-3-methylisoxazole-5-carboxamide]
22 | 92 | C[C@@]1(F)CC(F)(F)[C@@](C)(c2cc(NC(=O)c3ccc(Cl)cc3)ccc2F)N=C1N [Compound 44, N-(3-((2R,5R)-6-amino-3,3,5-trifluoro-2,5-dimethyl-2,3,4,5-tetrahydropyridin-2-yl)-4-fluorophenyl)-4-chlorobenzamide]
23 | 94 | [2H]C([2H])([2H])Oc1ccc(C(=O)Nc2ccc(F)c([C@@]3(C)N=C(N)[C@](C)(F)CC3(F)F)c2)nc1 [Compound 43, N-(3-((2R,5R)-6-amino-3,3,5-trifluoro-2,5-dimethyl-2,3,4,5-tetrahydropyridin-2-yl)-4-fluorophenyl)-5-(methoxy-d3)picolinamide]
24 | 84 | Cc1ncc(C(=O)Nc2ccc(F)c([C@@]3(C)N=C(N)[C@](C)(F)CC3(F)F)c2)o1 [Compound 42, N-(3-((2R,5R)-6-amino-3,3,5-trifluoro-2,5-dimethyl-2,3,4,5-tetrahydropyridin-2-yl)-4-fluorophenyl)-2-methyloxazole-5-carboxamide trifluoroacetic acid salt]
25 | 102 | C[C@@]1(F)CC(F)(F)[C@@](C)(c2cc(NC(=O)c3ccc(C(F)(F)F)cn3)ccc2F)N=C1N [Compound 28, N-(3-((2R,5R)-6-amino-3,3,5-trifluoro-2,5-dimethyl-2,3,4,5-tetrahydropyridin-2-yl)-4-fluorophenyl)-5-(trifluoromethyl)picolinamide]
26 | 103 | C[C@@]1(F)CC(F)(F)[C@@](C)(c2cc(NC(=O)c3ccc(Cl)cn3)ccc2F)N=C1N [Compound 33, N-(3-((2R,5R)-6-amino-3,3,5-trifluoro-2,5-dimethyl-2,3,4,5-tetrahydropyridin-2-yl)-4-fluorophenyl)-5-chloropicolinamide]
27 | 99 | [2H]C([2H])([2H])Oc1ccc(C(=O)Nc2ccc(F)c([C@@]3(C)N=C(N)[C@@](C)(F)CC3(F)F)c2)nc1 [Compound 48]
28 | 101 | C[C@@]1(F)CC(F)(F)[C@@](C)(c2cc(NC(=O)c3coc(C(F)F)n3)ccc2F)N=C1N [Compound 29, N-(3-((2R,5R)-6-amino-3,3,5-trifluoro-2,5-dimethyl-2,3,4,5-tetrahydropyridin-2-yl)-4-fluorophenyl)-2-(difluoromethyl)oxazole-4-carboxamide]
